What is called EC50 is the concentration needed to bring the measured effect to its halfway point.

In one experiment the target is human APJ receptor (Homo sapiens (Human), UniProt P35414). Nature of the experiment: Intracellular cAMP accumulation assay (APJ hcAMP, HTRF). The experiment is classed as cell-based. The settings on record: HEK293 cells stably expressing human APJ receptor; inhibition of forskolin-mediated cAMP production; read-out: Human APJ cAMP EC50 Potency range. The procedure, abridged: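 HEK293 cells stably expressing human APJ, 5,000 per well, incubated 30 min at rt with compound, […] and 2 μM forskolin. cAMP measured by HTRF against a cAMP standard curve as inhibition of forskolin-driven production. EC50 from variable-slope sigmoidal fit.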
human APJ receptor, sequence (P35414 whole entry): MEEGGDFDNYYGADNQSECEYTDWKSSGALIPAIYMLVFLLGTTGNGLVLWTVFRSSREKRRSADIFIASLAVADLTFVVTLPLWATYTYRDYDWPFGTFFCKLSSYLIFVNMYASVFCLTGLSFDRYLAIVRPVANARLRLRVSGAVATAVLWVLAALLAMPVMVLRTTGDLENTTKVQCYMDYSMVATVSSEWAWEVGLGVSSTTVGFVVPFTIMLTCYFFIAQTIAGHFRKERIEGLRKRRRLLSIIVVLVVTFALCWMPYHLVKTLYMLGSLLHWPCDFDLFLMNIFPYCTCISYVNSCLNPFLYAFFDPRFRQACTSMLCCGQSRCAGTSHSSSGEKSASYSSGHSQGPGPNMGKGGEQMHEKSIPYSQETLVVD
For orientation: cAMP levels reflect the balance of adenylyl cyclase and phosphodiesterase activity.
In the case of `CCCCc1nc(=O)c(S(=O)(=O)c2ccc(-c3cccnc3C)cc2)c(O)n1[C@@H](CC)c1ccc(F)cc1` [Example 425, 2-butyl-1-[(1S)-1-(4-fluorophenyl)propyl]-6-hydroxy-5-[4-(2-methylpyridin-3-yl)benzenesulfonyl]-1,4-dihydropyrimidin-4-one], the concentration giving a half-maximal response (EC50) was 0.01 to 10 nM. On the same count and under the same terms, the figure for `CCCCc1nc(=O)c(S(=O)(=O)c2ccc(-c3cccc(F)c3C(N)=O)cc2)c(O)n1[C@@H](CC)c1cccc(C#N)c1` [Example 538, 4′-({2-butyl-1-[(1S)-1-(3-cyanophenyl)propyl]-6-hydroxy-4-oxo-1,4-dihydropyrimidin-5-yl}sulfonyl)-3-fluoro-[1,1′-biphenyl]-2-carboxamide] is 0.01 to 10 nM; for `CC[C@@H](c1cccc(C#N)c1)n1c(CC2CC2)nc(=O)c(S(=O)(=O)c2ccc(-c3ccncc3C#N)cc2)c1O` [Example 474, 4-[4-({1-[(1S)-1-(3-cyanophenyl)propyl]-2-(cyclopropylmethyl)-6-hydroxy-4-oxo-1,4-dihydropyrimidin-5-yl}sulfonyl)phenyl] pyridine-3-carbonitrile] it is 0.01 to 10 nM.

As to `CCCCc1nc(=O)c(S(=O)(=O)[C@H]2CC[C@H](OCc3ccccc3)CC2)c(O)n1-c1c(CC)cccc1CC` [Example 364, 2-butyl-1-(2,6-diethylphenyl)-6-hydroxy-5-{[(1r,4r)-4-(benzyloxy)cyclohexyl]sulfonyl}-1,4-dihydropyrimidin-4-one], the concentration for a half-maximal effect (EC50) lay in the range of 0.01 to 10 nM. The same measure, in the same setting: the result for `CCCCc1nc(=O)c(S(=O)(=O)c2ccc(-c3ccccc3C(=O)OC)cn2)c(O)n1[C@@H](CC)c1cccc(C#N)c1` [Example 481, methyl 2-[6-({2-butyl-1-[(1S)-1-(3-cyanophenyl)propyl]-6-hydroxy-4-oxo-1,4-dihydropyrimidin-5-yl}sulfonyl)pyridin-3-yl]benzoate] reads 0.01 to 10 nM; that for `CCCCc1nc(=O)c(S(=O)(=O)c2ccc(-c3ccccc3C(=O)OC)cc2)c(O)n1[C@@H](CC)c1cccc(C#N)c1` [Example 501, methyl 4′-({2-butyl-1-[(1S)-1-(3-cyanophenyl)propyl]-6-hydroxy-4-oxo-1,4-dihydropyrimidin-5-yl}sulfonyl)-[1,1′-biphenyl]-2-carboxylate], 0.01 to 10 nM. On to `CCCCc1nc(=O)c(S(=O)(=O)c2ccc(-c3ccc(F)nc3C)cc2)c(O)n1C(c1cccc(C#N)c1)C1CC1` (stereo not drawn) [Example 461, 3-({2-butyl-5-[4-(6-fluoro-2-methylpyridin-3-yl)benzenesulfonyl]-6-hydroxy-4-oxo-1,4-dihydropyrimidin-1-yl}(cyclopropyl)methyl) benzonitrile], for which the EC50 lay within 0.01 to 10 nM. Same read-out and setting: the figure for `CCCCc1nc(=O)c(S(=O)(=O)c2ccc(-c3ccccc3C#N)cn2)c(O)n1[C@@H](CC)c1cccc(C#N)c1` [Example 463, 2-[6-({2-butyl-1-[(1S)-1-(3-cyanophenyl)propyl]-6-hydroxy-4-oxo-1,4-dihydropyrimidin-5-yl}sulfonyl)pyridin-3-yl]benzonitrile] is 0.01 to 10 nM; for `CCCCc1nc(=O)c(S(=O)(=O)c2ccc(-c3ccc(F)nc3C)cc2)c(O)n1[C@@H](CC)c1ccc(F)cc1` [Example 426, 2-butyl-5-[4-(6-fluoro-2-methylpyridin-3-yl)benzenesulfonyl]-1-[(1S)-1-(4-fluorophenyl)propyl]-6-hydroxy-1,4-dihydropyrimidin-4-one] it is 0.01 to 10 nM; for `CCOCc1nc(=O)c(S(=O)(=O)c2ccc(Br)cc2)c(O)n1[C@@H](COC)c1cc(F)cc(F)c1` [Example 370, 5-(4-bromobenzenesulfonyl)-1-[(1R)-1-(3,5-difluorophenyl)-2-methoxyethyl]-2-(ethoxymethyl)-6-hydroxy-1,4-dihydropyrimidin-4-one] it is 0.01 to 10 nM.

Still in this experiment, the particulars now being: human APJ, cAMP accumulation; read-out: Human APJ cAMP EC50 Potency range.
As to `CC[C@@H](c1ccccc1)n1c(COC(C)C)nc(=O)c(S(=O)(=O)c2ccc(-c3ccnc(F)c3C)cc2)c1O` [Example 312, 5-[4-(2-fluoro-3-methylpyridin-4-yl)benzenesulfonyl]-6-hydroxy-1-[(1S)-1-phenylpropyl]-2-[(propan-2-yloxy)methyl]-1,4-dihydropyrimidin-4-one], the EC50 was 0.01 to 10 nM. Same read-out and setting: the figure for `CCCCc1nc(=O)c(S(=O)(=O)c2ccc(-c3cccnc3C)cc2)c(O)n1[C@@H](C)c1ccccc1OC` [Example 231, 2-butyl-6-hydroxy-1-[(1S)-1-(2-methoxyphenyl)ethyl]-5-[4-(2-methylpyridin-3-yl)benzenesulfonyl]-1,4-dihydropyrimidin-4-one] is 0.01 to 10 nM. Still for that read-out and setting: the figure for `CCCCc1nc(=O)c(S(=O)(=O)c2ccc(-c3ccc(F)nc3C)cc2)c(O)n1[C@H](CC)c1cccc2c1OCO2` [Example 262, 1-[(1R)-1-(2H-1,3-benzodioxol-4-yl)propyl]-2-butyl-5-[4-(6-fluoro-2-methylpyridin-3-yl)benzenesulfonyl]-6-hydroxy-1,4-dihydropyrimidin-4-one] is 0.01 to 10 nM.

As to `CCCCc1nc(=O)c(S(=O)(=O)c2ccc(-c3ccncc3C)cc2)c(O)n1[C@@H](CC)c1cccc2c1OCO2` [Example 256, 1-[(1S)-1-(2H-1,3-benzodioxol-4-yl)propyl]-2-butyl-6-hydroxy-5-[4-(3-methylpyridin-4-yl)benzenesulfonyl]-1,4-dihydropyrimidin-4-one], the EC50 lay within 0.01 to 10 nM. Turning to `CCCCc1nc(=O)c(S(=O)(=O)c2ccc(Br)cc2)c(O)n1[C@@H](CC)c1ccccc1` [Example 284, 5-(4-bromobenzenesulfonyl)-2-butyl-6-hydroxy-1-[(1S)-1-phenylpropyl]-1,4-dihydropyrimidin-4-one], the EC50 lay in the range of 0.01 to 10 nM.

`Cc1cnccc1-c1ccc(S(=O)(=O)c2c(O)n([C@H]3CCc4ccccc43)c(COC(C)C)nc2=O)cc1` [Example 332, 1-[(1S)-2,3-dihydro-1H-inden-1-yl]-6-hydroxy-5-[4-(3-methylpyridin-4-yl)benzenesulfonyl]-2-[(propan-2-yloxy)methyl]-1,4-dihydropyrimidin-4-one]: the 50% effective concentration (EC50) was 0.01 to 10 nM. On the same count and under the same terms, the result for `CCCCCc1nc(=O)c(S(=O)(=O)c2ccc(-c3ccnc(F)c3C)cc2)c(O)n1[C@@H](COC)c1ccccc1` [Example 242, 5-[4-(2-fluoro-3-methylpyridin-4-yl)benzenesulfonyl]-6-hydroxy-1-[(1R)-2-methoxy-1-phenylethyl]-2-pentyl-1,4-dihydropyrimidin-4-one] reads 0.01 to 10 nM.

Take `COC[C@@H](c1ccccc1)n1c(COC(C)C)nc(=O)c(S(=O)(=O)c2ccc(-c3cccnc3C)cc2)c1O` [Example 328]: the EC50 lay in the range of 0.01 to 10 nM. Same read-out and setting: the result for `CCOCc1nc(=O)c(S(=O)(=O)c2ccc(Br)cc2)c(O)n1[C@H]1CCc2ccccc21` [Example 297, 5-(4-bromobenzenesulfonyl)-1-[(1S)-2,3-dihydro-1H-inden-1-yl]-2-(ethoxymethyl)-6-hydroxy-1,4-dihydropyrimidin-4-one] reads 10 to 100 nM; that for `CCCCc1nc(=O)c(S(=O)(=O)c2ccc(-c3cccnc3C)cc2)c(O)n1[C@H]1CCCc2ccccc21` [Example 221, 2-butyl-6-hydroxy-5-[4-(2-methylpyridin-3-yl)benzenesulfonyl]-1-[(1S)-1,2,3,4-tetrahydronaphthalen-1-yl]-1,4-dihydropyrimidin-4-one], 0.01 to 10 nM.

Still in this experiment, the particulars now being: human APJ, intracellular cAMP accumulation; read-out: Human APJ cAMP EC50 Potency range.
With `CCCCc1nc(=O)c(S(=O)(=O)c2ccc(-c3cncc(F)c3)cc2)c(O)n1[C@@H](C)c1cccc(C#N)c1` [Example 140, 3-[(1S)-1-{2-butyl-5-[4-(5-fluoropyridin-3-yl)benzenesulfonyl]-6-hydroxy-4-oxo-1,4-dihydropyrimidin-1-yl}ethyl]benzonitrile], the EC50 was 0.01 to 10 nM.

As for `CCCCc1nc(=O)c(S(=O)(=O)c2ccc(-c3cc(C)nc(C)c3)cc2)c(O)n1[C@@H](COC)c1ccccc1` [Example 154, 2-butyl-5-[4-(2,6-dimethylpyridin-4-yl)benzenesulfonyl]-6-hydroxy-1-[(1R)-2-methoxy-1-phenylethyl]-1,4-dihydropyrimidin-4-one], the EC50 is 10 to 100 nM.

Regarding `CCCCc1nc(=O)c(S(=O)(=O)c2ccc(-c3ccnc(F)c3C)cc2)c(O)n1[C@@H](CC)c1cccc(Cl)c1` [Example 194, 2-butyl-1-[(1S)-1-(3-chlorophenyl)propyl]-5-[4-(2-fluoro-3-methylpyridin-4-yl)benzenesulfonyl]-6-hydroxy-1,4-dihydropyrimidin-4-one], the EC50 was 0.01 to 10 nM. On the same count and under the same terms, the result for `CCCCc1nc(=O)c(S(=O)(=O)c2ccc(-c3cncc(F)c3)cc2)c(O)n1[C@H](C)c1cccc(C#N)c1` [Example 162, 3-[(1R)-1-{2-butyl-5-[4-(5-fluoropyridin-3-yl)benzenesulfonyl]-6-hydroxy-4-oxo-1,4-dihydropyrimidin-1-yl}ethyl]benzonitrile] reads 10 to 100 nM; that for `CCCc1nc(=O)c(S(=O)(=O)c2ccc(-c3cncc(F)c3)cc2)c(O)n1[C@@H](COC)c1ccccc1` [Example 172, 5-[4-(5-fluoropyridin-3-yl)benzenesulfonyl]-6-hydroxy-1-[(1R)-2-methoxy-1-phenylethyl]-2-propyl-1,4-dihydropyrimidin-4-one], 0.01 to 10 nM. Still for that read-out and setting: the figure for `CCCCc1nc(=O)c(S(=O)(=O)c2ccc(-c3ccc(F)nc3)cc2)c(O)n1[C@@H](C)c1ccccc1` [Example 135, 2-butyl-5-[4-(6-fluoropyridin-3-yl)benzenesulfonyl]-6-hydroxy-1-[(1S)-1-phenylethyl]-1,4-dihydropyrimidin-4-one] is 0.01 to 10 nM; for `CCCCc1nc(=O)c(S(=O)(=O)c2ccc(-c3ccc(C(C)(C)O)cc3)cc2)c(O)n1-c1c(OC)cccc1OC` [Example 31, 2-butyl-1-(2,6-dimethoxyphenyl)-6-hydroxy-5-{4-[4-(2-hydroxypropan-2-yl)phenyl]benzene-sulfonyl}-1,4-dihydropyrimidin-4-one] it is 0.01 to 10 nM.

Values taken from US10508104B2, “6-hydroxy-5-(phenyl/heteroarylsulfonyl)pyrimidin-4(1H)-one as APJ agonists” (Bristol-Myers Squibb Company, priority 2016, dated 2019).
